Molecular target: human recombinant GABAA α5β3γ2 receptor (Homo sapiens (Human), UniProt P18507+P31644)
Experiment: Radioligand ([3H]Ro151788) receptor binding assay
Conditions: membranes of HEK cells expressing human recombinant GABAA α5β3γ2; 0.5 nM [3H]Ro151788; 60 minutes at 4° C.; read-out: hGABAA α5 Ki
Protocol: The GABAA α5β3γ2 protein used for the receptor binding assay was derived from membranes produced from HEK cells (Millipore CYL3073) expressing the human recombinant GABAA α5β3γ2 receptor. Cells were stored and cultured in-house according to the instructions provided by the vendor (Millipore). Cell pellet was homogenized in 10 times modified Krebs Henseleit buffer (membrane preparation buffer): 20 mM Tris, 120 mM NaCl, 100 mM KCl, 25 mM CaCl2 and 25 mM MgCl2 pH=7.4 at 4° C. using Ultra Turrax (Janke&Kunkel) maximal speed for 15 seconds. The homogenate was centrifuged at 40,000 g for 30 minutes at 4° C. Supernatant was discarded and the resulting pellet was washed in membrane preparation buffer. Pellet was resuspended in membrane preparation buffer and aliquots of 1.4 mL ampules were stored at −70° C. until use.
Receptor binding assays were performed in 96-well format in deep-well plates. For each 96-well plate one ampule of membrane homogenate was thawed and diluted in binding buffer (50 mM Tris pH=7.4, 100 mM KCl) and 200 μL was dispensed into each well. Radioligand [^3H]Ro151788 (Perkin Elmer: NET757250UC) was prepared in binding buffer and added to each well in 50 μL volume to give final concentration of 0.5 nM. Test compounds in suitable concentration(s) were added in additional 50 μL. The final assay volume was 300 μL. Incubation was carried out for 60 minutes at 4° C. For non-specific binding 10 μM unlabeled diazepam was used. After incubation samples were filtered over UniFilter® GF/BT using Filtermate Harvester (Perkin Elmer) and washed with 5×1 mL binding buffer. The plate was dried at 40° C. for an hour and 40 μL Microscint (Perkin Elmer) scintillation cocktail was added to each well. The plate was read in Microbeta (Perkin Elmer).
The specific radioligand binding (SB) was defined as the difference between total binding (Tot) and the non-specific binding (NSB). Results are expressed as a percent inhibition of specific binding obtained in the presence of compound of interest.
For IC50 and Ki determination a minimum of six drug concentrations in triplicate were used. IC50 values (i.e. concentration of compound giving 50% inhibition of specific binding) were calculated from concentration-displacement curves by sigmoidal fitting using Origin 7.5 software. Ki values (i.e. inhibition constants) were calculated using the Cheng-Prusoff equation Ki=IC50/[1+(L/KD)], where [L] is the radioligand concentration and KD the affinity of the labelled ligand for receptor. KD was determined from the Saturation analyses.

Sequence of human recombinant GABAA α5β3γ2 receptor (P31644 32-462): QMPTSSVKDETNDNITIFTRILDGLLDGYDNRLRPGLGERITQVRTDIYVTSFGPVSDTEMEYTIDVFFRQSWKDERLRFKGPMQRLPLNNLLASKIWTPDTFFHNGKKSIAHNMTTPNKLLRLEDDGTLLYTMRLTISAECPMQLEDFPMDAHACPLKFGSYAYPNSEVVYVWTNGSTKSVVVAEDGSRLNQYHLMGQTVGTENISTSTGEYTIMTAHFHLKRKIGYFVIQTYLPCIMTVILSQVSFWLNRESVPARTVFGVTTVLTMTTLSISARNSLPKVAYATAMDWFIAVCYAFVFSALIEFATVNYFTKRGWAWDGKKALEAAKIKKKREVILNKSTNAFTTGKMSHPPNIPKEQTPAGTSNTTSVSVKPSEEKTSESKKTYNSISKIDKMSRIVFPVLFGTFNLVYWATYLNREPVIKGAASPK
Sequence of human recombinant GABAA α5β3γ2 receptor (P28472 26-473 partner): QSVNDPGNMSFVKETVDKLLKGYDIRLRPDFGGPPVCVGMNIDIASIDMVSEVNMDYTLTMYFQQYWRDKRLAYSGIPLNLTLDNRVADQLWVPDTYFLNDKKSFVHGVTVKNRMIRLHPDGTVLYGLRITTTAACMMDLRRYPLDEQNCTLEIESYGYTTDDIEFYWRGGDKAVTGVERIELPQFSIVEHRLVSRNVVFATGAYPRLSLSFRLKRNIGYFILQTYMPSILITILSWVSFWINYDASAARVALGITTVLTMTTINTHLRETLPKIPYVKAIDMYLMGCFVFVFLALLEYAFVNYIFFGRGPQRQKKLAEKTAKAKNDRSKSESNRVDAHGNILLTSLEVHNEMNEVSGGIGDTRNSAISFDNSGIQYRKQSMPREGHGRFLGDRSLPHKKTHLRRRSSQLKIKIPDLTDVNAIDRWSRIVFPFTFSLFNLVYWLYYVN
Sequence of human recombinant GABAA α5β3γ2 receptor (P18507 40-475): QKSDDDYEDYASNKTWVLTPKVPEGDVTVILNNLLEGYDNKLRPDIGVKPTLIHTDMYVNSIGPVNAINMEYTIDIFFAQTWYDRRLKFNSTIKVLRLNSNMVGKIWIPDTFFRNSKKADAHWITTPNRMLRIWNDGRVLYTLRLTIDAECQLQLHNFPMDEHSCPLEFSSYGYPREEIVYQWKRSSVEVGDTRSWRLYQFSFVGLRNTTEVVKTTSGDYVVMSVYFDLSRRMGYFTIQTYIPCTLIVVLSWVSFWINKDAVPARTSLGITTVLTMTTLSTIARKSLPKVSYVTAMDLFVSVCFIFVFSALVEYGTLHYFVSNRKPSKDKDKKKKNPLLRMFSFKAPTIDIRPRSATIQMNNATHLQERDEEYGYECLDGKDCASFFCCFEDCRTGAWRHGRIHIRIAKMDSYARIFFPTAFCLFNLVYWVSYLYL

Row | SMILES | Ki [nM]
1 | Cc1ccc(-n2nnc(C)c2COc2cc3c(cn2)CN(C(=O)CC(C)C)CC3)cn1 [Example 41, 3-methyl-1-(6-{[4-methyl-1-(6-methylpyridin-3-yl)-1H-1,2,3-triazol-5-yl]methoxy}-1,2,3,4-tetrahydro-2,7-naphthyridin-2-yl)butan-1-one] | 48
2 | CC(=O)N1CCc2cc(OCc3c(-c4ccc(C)nc4)noc3C)nnc2C1 [Example 24, 1-(3-{[5-methyl-3-(6-methylpyridin-3-yl)-1,2-oxazol-4-yl]methoxy}-5H,6H,7H,8H-pyrido[3,4-c]pyridazin-7-yl)ethan-1-one] | 2.3
3 | Cc1ccc(-c2noc(C)c2COc2cc3c(cn2)CN(C(=O)c2cccnc2)CC3)cn1 [Example 7, 6-{[5-methyl-3-(6-methylpyridin-3-yl)-1,2-oxazol-4-yl]methoxy}-2-(pyridine-3-carbonyl)-1,2,3,4-tetrahydro-2,7-naphthyridine] | 6
4 | Cc1ccc(-c2noc(C)c2COc2cc3c(cn2)CN(C(=O)[C@H]2CCC(=O)N2C)CC3)cn1 [Example 21, (5R)-1-methyl-5-(6-{[5-methyl-3-(6-methylpyridin-3-yl)-1,2-oxazol-4-yl]methoxy}-1,2,3,4-tetrahydro-2,7-naphthyridine-2-carbonyl)pyrrolidin-2-one] | 5.7
5 | CC(=O)N1CCc2cc(OCc3c(C)nnn3-c3ccc(C(F)(F)F)nc3)nnc2C1 [Example 53, 1-[3-({4-methyl-1-[6-(trifluoromethyl)pyridin-3-yl]-1H-1,2,3-triazol-5-yl}methoxy)-5,8-dihydropyrido[3,4-c]pyridazin-7(6H)-yl]ethanone] | 99.1
6 | Cc1ccc(-c2noc(C)c2COc2cc3c(nn2)CN(C(=O)C(C)C)CC3)cn1 [Example 31, 2-methyl-1-(3-{[5-methyl-3-(6-methylpyridin-3-yl)-1,2-oxazol-4-yl]methoxy}-5H,6H,7H,8H-pyrido[3,4-c]pyridazin-7-yl)propan-1-one] | 4.3
7 | Cc1ccc(-c2nnn(C)c2COc2cc3c(cn2)CN(C(=O)C2CC2)CC3)cn1 [Example 65, 2-cyclopropanecarbonyl-6-{[1-methyl-4-(6-methylpyridin-3-yl)-1H-1,2,3-triazol-5-yl]methoxy}-1,2,3,4-tetrahydro-2,7-naphthyridine] | 52
8 | CC(=O)N1CCc2cc(OCc3c(-c4ccc(C(F)(F)F)nc4)noc3C)nnc2C1 [Example 34, 1-[3-({5-methyl-3-[6-(trifluoromethyl)pyridin-3-yl]-1,2-oxazol-4-yl}methoxy)-5H,6H,7H,8H-pyrido[3,4-c]pyridazin-7-yl]ethan-1-one] | 8.1
9 | CCC(=O)N1CCc2cc(OCc3c(C)nnn3-c3ccc(C(F)F)nc3)ncc2C1 [Example 56, 1-[6-({1-[6-(difluoromethyl)pyridin-3-yl]-4-methyl-1H-1,2,3-triazol-5-yl}methoxy)-3,4 dihydro-2,7-naphthyridin-2(1H)-yl]propan-1-one] | 1.6
10 | Cc1ccc(-c2noc(C)c2COc2cc3c(cn2)CN(C(=O)C2CC(=O)N(C)C2)CC3)cn1 (centres unmarked) [Example 15, 1-methyl-4-(6-{[5-methyl-3-(6-methylpyridin-3-yl)-1,2-oxazol-4-yl]methoxy}-1,2,3,4-tetrahydro-2,7-naphthyridine-2-carbonyl)pyrrolidin-2-one] | 8.3
11 | Cc1ccc(-c2noc(C)c2COc2cc3c(nn2)CN(C(=O)N2CCOCC2)CC3)cn1 [Example 26, 4-(3-{[5-methyl-3-(6-methylpyridin-3-yl)-1,2-oxazol-4-yl]methoxy}-5H,6H,7H,8H-pyrido[3,4-c]pyridazine-7-carbonyl)morpholine] | 13
12 | Cc1ccc(-c2noc(C)c2COc2cc3c(cn2)CN(C(=O)CS(C)(=O)=O)CC3)cn1 [Example 5, 2-methanesulfonyl-1-(6-{[5-methyl-3-(6-methylpyridin-3-yl)-1,2-oxazol-4-yl]methoxy}-1,2,3,4-tetrahydro-2,7-naphthyridin-2-yl)ethan-1-one] | 3.5
13 | Cc1nnn(-c2ccc(C(F)(F)F)nc2)c1COc1cc2c(cn1)CN(C(=O)C1CC1)CC2 [Example 51, 2-cyclopropanecarbonyl-6-({4-methyl-1-[6-(trifluoromethyl)pyridin-3-yl]-1H-1,2,3-triazol-5-yl}methoxy)-1,2,3,4-tetrahydro-2,7-naphthyridine] | 31
14 | CC(=O)N1CCc2cc(OCc3c(-c4ccc(C)nc4)noc3C)ncc2C1 [Example 1, 1-[6-{[5-methyl-3-(6-methylpyridin-3-yl)-1,2-oxazol-4-yl]methoxy}-3,4-dihydro-2,7-naphthyridin-2(1H)-yl]ethanone] | 1.7
15 | Cc1ccc(-c2noc(C)c2COc2cc3c(nn2)CN(C(=O)C2CCOCC2)CC3)cn1 [Example 27, 2-methyl-5-[5-methyl-4-({[7-(oxane-4-carbonyl)-5H,6H,7H,8H-pyrido[3,4-c]pyridazin-3-yl]oxy}methyl)-1,2-oxazol-3-yl]pyridine] | 10
16 | CCC(=O)N1CCc2cc(OCc3c(-c4ccc(C)nc4)noc3C)nnc2C1 [Example 29, 1-(3-{[5-methyl-3-(6-methylpyridin-3-yl)-1,2-oxazol-4-yl]methoxy}-5H,6H,7H,8H-pyrido[3,4-c]pyridazin-7-yl)propan-1-one] | 6
17 | Cc1ccc(-c2noc(C)c2COc2cc3c(cn2)CN(C(=O)C2CCS(=O)(=O)CC2)CC3)cn1 [Example 8, 4-(6-{[5-methyl-3-(6-methylpyridin-3-yl)-1,2-oxazol-4-yl]methoxy}-1,2,3,4-tetrahydro-2,7-naphthyridine-2-carbonyl)-1lambda6-thiane-1,1-dione] | 16
18 | CC(=O)N1CCc2cc(OCc3c(C)nnn3-c3ccc(C(F)(F)F)nc3)ncc2C1 [Example 47, 1-[6-({4-methyl-1-[6-(trifluoromethyl)pyridin-3-yl]-1H-1,2,3-triazol-5-yl}methoxy)-1,2,3,4-tetrahydro-2,7-naphthyridin-2-yl]ethan-1-one] | 25
19 | CCC(=O)N1CCc2cc(OCc3c(C)nnn3-c3ccc(C(F)(F)F)nc3)ncc2C1 [Example 48, 1-[6-({4-methyl-1-[6-(trifluoromethyl)pyridin-3-yl]-1H-1,2,3-triazol-5-yl}methoxy)-1,2,3,4-tetrahydro-2,7-naphthyridin-2-yl]propan-1-one] | 33
20 | Cc1ccc(-c2noc(C)c2COc2cc3c(cn2)CN(C(=O)[C@@H]2CCC(=O)N2C)CC3)cn1 [Example 22, (5S)-1-methyl-5-(6-{[5-methyl-3-(6-methylpyridin-3-yl)-1,2-oxazol-4-yl]methoxy}-1,2,3,4-tetrahydro-2,7-naphthyridine-2-carbonyl)pyrrolidin-2-one] | 9.4
21 | CCC(=O)N1CCc2cc(OCc3c(C)nnn3-c3ccc(C)nc3)ncc2C1 [Example 43, 1-(6-{[4-methyl-1-(6-methylpyridin-3-yl)-1H-1,2,3-triazol-5-yl]methoxy}-1,2,3,4-tetrahydro-2,7-naphthyridin-2-yl)propan-1-one] | 20
22 | Cc1ccc(-c2noc(C)c2COc2cc3c(cn2)CN(C(=O)OC(C)(C)C)CC3)cn1 [Example 2, tert-butyl 6-{[5-methyl-3-(6-methylpyridin-3-yl)-1,2-oxazol-4-yl]methoxyl}-1,2,3,4-tetrahydro-2,7-naphthyridine-2-carboxylate] | 38
23 | Cc1nnn(-c2ccc(C(F)F)nc2)c1COc1cc2c(cn1)CN(C(=O)CF)CC2 [Example 57, 2-fluoro-1-[6-({4-methyl-1-[6-(difluoromethyl)pyridin-3-yl]-1H-1,2,3-triazol-5-yl}methoxy)-1,2,3,4-tetrahydro-2,7-naphthyridin-2-yl]ethan-1-one] | 0.9
24 | Cc1ccc(-c2noc(C)c2COc2cc3c(nn2)CN(C(=O)C2CC2)CC3)cn1 [Example 28, 5-{4-[({7-cyclopropanecarbonyl-5H,6H,7H,8H-pyrido[3,4-c]pyridazin-3-yl}oxy)methyl]-5-methyl-1,2-oxazol-3-yl}-2-methylpyridine] | 4.4
25 | Cc1ccc(-c2noc(C)c2COc2cc3c(cn2)CN(C(=O)C2CCC(=O)N(C)C2)CC3)cn1 (centres unmarked) [Example 20, 1-methyl-5-(6-{[5-methyl-3-(6-methylpyridin-3-yl)-1,2-oxazol-4-yl]methoxy}-1,2,3,4-tetrahydro-2,7-naphthyridine-2-carbonyl)piperidin-2-one] | 9
26 | Cc1ccc(-c2noc(C)c2COc2cc3c(cn2)CN(C(=O)c2ccncc2)CC3)cn1 [Example 9, 6-{[5-methyl-3-(6-methylpyridin-3-yl)-1,2-oxazol-4-yl]methoxy}-2-(pyridine-4-carbonyl)-1,2,3,4-tetrahydro-2,7-naphthyridine] | 10

From patent US20240067637A1, “NAPHTHYRIDINE AND PYRIDO[3,4-c]PYRIDAZINE DERIVATIVES AS GABAA ALPHA 5 RECEPTOR MODULATORS” (Richter Gedeon Nyrt., priority 2020, published 2024)
